Results as given in article PMC3920255 (Toxins, 2013).
Converted amounts (≈) assume the structure as drawn. Like-named read-outs stand apart in the source and are kept apart here. Numbered stars: 1 amine (or outer) side, 2 acyl side, 3 side chain; on linkers, the order of the positions; unused ones are H or OH. Bridge positions count the residues as written; N and C are the ends. Square brackets hold non-standard residues; d marks the D form. Peptide text beside a SMILES is read from it. Adda = CO[C@@H](Cc1ccccc1)[C@@H](C)/C=C(C)/C=C/[C@H](N[*:1])[C@H](C)C(=O)[*:2]; dAsp(3S-Me) = C[C@H](C(=O)[*:3])[C@@H](N[*:1])C(=O)[*:2]; d(γGlu) = O=C(O)[C@@H](CCC(=O)[*:2])N[*:1]; NMeDha = C=C(NC)C(=O)O; Dha = C=C(N)C(=O)O

How the values were obtained:
[1] = test system: primary cultured rat hepatocytes
primary rat hepatocytes = details: cited from earlier work

Compound	IC50 (concentration showing 50% cell viability) [1] [µg/mL]	IC50 (concentration showing 50% cell viability) ([1]; 72 h) [µg/mL]	IC50 of MC-LR to primary rat hepatocytes, earlier study (primary rat hepatocytes) [ng/mL]
C=C1C(=O)N[C@H](C)C(=O)N[C@@H](Cc2ccc(O)cc2)C(=O)N[C@@H](C(=O)O)[C@H](C)C(=O)N[C@@H](CCCNC(=N)N)C(=O)N[C@@H](/C=C/C(C)=C/[C@H](C)[C@H](Cc2ccccc2)OC)[C@H](C)C(=O)N[C@@H](C(=O)O)CCC(=O)N1C [No.7, MC-YR] (R[Adda][d(γGlu)][NMeDha][dA]Y[dAsp(3S-Me)]-OH; lactam N-7)	1.48 (≈ 1.42 µM)		
C/C=C1/NC(=O)CC[C@H](C(=O)O)NC(=O)[C@@H](C)[C@H](/C=C/C(C)=C/[C@H](C)[C@H](Cc2ccccc2)OC)NC(=O)[C@H](CCCNC(=N)N)NC(=O)C[C@H](C(=O)O)NC(=O)[C@H](CCc2ccc(O)cc2)NC(=O)[C@@H](C)NC1=O [No.10, [D-Asp^3, E-Dhb^7] MC-HtyR]		0.327 (≈ 0.313 µM)	
C=C1C(=O)N[C@H](C)C(=O)N[C@@H](CC(C)C)C(=O)N[C@@H](C(=O)O)[C@H](C)C(=O)N[C@@H](CCCNC(=N)N)C(=O)N[C@@H](/C=C/C(C)=C/[C@H](C)[C@H](Cc2ccccc2)OC)[C@H](C)C(=O)N[C@@H](C(=O)O)CCC(=O)N1C [No.1, MC-LR, reference compound] (R[Adda][d(γGlu)][NMeDha][dA]L[dAsp(3S-Me)]-OH; lactam N-7)	0.800 (≈ 0.804 µM)		48
C=C1NC(=O)CC[C@H](C(=O)O)NC(=O)[C@@H](C)[C@H](/C=C/C(C)=C/[C@H](C)[C@H](Cc2ccccc2)OC)NC(=O)[C@H](CCCNC(=N)N)NC(=O)[C@@H](C)[C@H](C(=O)O)NC(=O)[C@H](CCCNC(=N)N)NC(=O)[C@@H](C)NC1=O [No.14, [Dha^7] MC-RR] (R[Adda][d(γGlu)][Dha][dA]R[dAsp(3S-Me)]-OH; lactam N-7)	5.33 (≈ 5.2 µM)		
C/C=C1\NC(=O)CC[C@H](C(=O)O)NC(=O)[C@@H](C)[C@H](/C=C/C(C)=C/[C@H](C)[C@H](Cc2ccccc2)OC)NC(=O)[C@H](CCCNC(=N)N)NC(=O)C[C@H](C(=O)O)NC(=O)[C@H](CCc2ccc(O)cc2)NC(=O)[C@@H](C)NC1=O [No.11, [D-Asp^3, Z-Dhb^7] MC-HtyR]		0.120 (≈ 0.115 µM)	
C/C=C1\NC(=O)CC[C@H](C(=O)O)NC(=O)[C@@H](C)[C@H](/C=C/C(C)=C/[C@H](C)[C@H](Cc2ccccc2)OC)NC(=O)[C@H](CCCNC(=N)N)NC(=O)C[C@H](C(=O)O)NC(=O)[C@H](CC(C)C)NC(=O)[C@@H](C)NC1=O [No.6, [D-Asp^3, Z-Dhb^7] MC-LR]	0.053 (≈ 0.054 µM)		
C=C1C(=O)N[C@H](C)C(=O)N[C@@H](CCCNC(=N)N)C(=O)N[C@@H](C(=O)O)[C@H](C)C(=O)N[C@@H](CCCNC(=N)N)C(=O)N[C@@H](/C=C/C(C)=C/[C@H](C)[C@H](Cc2ccccc2)OC)[C@H](C)C(=O)N[C@@H](C(=O)O)CCC(=O)N1C [No.12, MC-RR] (R[Adda][d(γGlu)][NMeDha][dA]R[dAsp(3S-Me)]-OH; lactam N-7)	>10		
C=C1C(=O)N[C@H](C)C(=O)N[C@@H](CC(C)C)C(=O)N[C@@H](C(=O)O)CC(=O)N[C@@H](CCCNC(=N)N)C(=O)N[C@@H](/C=C/C(C)=C/[C@H](C)[C@H](Cc2ccccc2)OC)[C@H](C)C(=O)N[C@@H](C(=O)O)CCC(=O)N1C [No.3, [D-Asp^3] MC-LR]	0.217 (≈ 0.221 µM)		
C=C1NC(=O)CC[C@H](C(=O)O)NC(=O)[C@@H](C)[C@H](/C=C/C(C)=C/[C@H](C)[C@H](Cc2ccccc2)OC)NC(=O)[C@H](CCCNC(=N)N)NC(=O)C[C@H](C(=O)O)NC(=O)[C@H](CC(C)C)NC(=O)[C@@H](C)NC1=O [No.4, [D-Asp^3, Dha^7] MC-LR]	0.217 (≈ 0.224 µM)		
C=C1NC(=O)CC[C@H](C(=O)O)NC(=O)[C@@H](C)[C@H](/C=C/C(C)=C/[C@H](C)[C@H](Cc2ccccc2)OC)NC(=O)[C@H](CCCNC(=N)N)NC(=O)[C@@H](C)[C@H](C(=O)O)NC(=O)[C@H](Cc2ccc(O)cc2)NC(=O)[C@@H](C)NC1=O [No.8, [Dha^7] MC-YR] (R[Adda][d(γGlu)][Dha][dA]Y[dAsp(3S-Me)]-OH; lactam N-7)	0.418 (≈ 0.405 µM)		
C/C=C1/NC(=O)CC[C@H](C(=O)O)NC(=O)[C@@H](C)[C@H](/C=C/C(C)=C/[C@H](C)[C@H](Cc2ccccc2)OC)NC(=O)[C@H](CCCNC(=N)N)NC(=O)C[C@H](C(=O)O)NC(=O)[C@H](CC(C)C)NC(=O)[C@@H](C)NC1=O [No.5, [D-Asp^3, E-Dhb^7] MC-LR]	0.133 (≈ 0.136 µM)		
C=C1NC(=O)CC[C@H](C(=O)O)NC(=O)[C@@H](C)[C@H](/C=C/C(C)=C/[C@H](C)[C@H](Cc2ccccc2)OC)NC(=O)[C@H](CCCNC(=N)N)NC(=O)C[C@H](C(=O)O)NC(=O)[C@H](CCCNC(=N)N)NC(=O)[C@@H](C)NC1=O [No.15, [D-Asp^3, Dha^7] MC-RR]	4.11 (≈ 4.07 µM)		
C=C1C(=O)N[C@H](C)C(=O)N[C@@H](CCc2ccc(O)cc2)C(=O)N[C@@H](C(=O)O)CC(=O)N[C@@H](CCCNC(=N)N)C(=O)N[C@@H](/C=C/C(C)=C/[C@H](C)[C@H](Cc2ccccc2)OC)[C@H](C)C(=O)N[C@@H](C(=O)O)CCC(=O)N1C [No.9, [D-Asp^3] MC-HtyR]		0.347 (≈ 0.332 µM)	
C=C1NC(=O)CC[C@H](C(=O)O)NC(=O)[C@@H](C)[C@H](/C=C/C(C)=C/[C@H](C)[C@H](Cc2ccccc2)OC)NC(=O)[C@H](CCCNC(=N)N)NC(=O)[C@@H](C)[C@H](C(=O)O)NC(=O)[C@H](CC(C)C)NC(=O)[C@@H](C)NC1=O [No.2, [Dha^7] MC-LR] (R[Adda][d(γGlu)][Dha][dA]L[dAsp(3S-Me)]-OH; lactam N-7)	0.217 (≈ 0.221 µM)		
